The values below come from patent US9359409B2, “Antimicrobial peptides, compositions comprising the same and uses thereof” (priority 2012, dated 2016).

In general, MIC refers to the lowest concentration that inhibits growth of the organism.

Like-named read-outs stand apart in the source and are kept apart here. Ends that are not written are not given here.

This experiment deals with E. faecalis.

Consider “ILRWPWWPWRRK-NH2 [Omiganan, ILRWPWWPWRRK, reference compound]”, for which the MIC was 128 µg/mL. This substance also yielded an MIC (E. faecalis ATCC 51299, resistance gene vanB) of 256 µg/mL. Besides, the minimum inhibitory concentration (MIC) (E. faecalis M4449, resistance gene vanA) came to 128 µg/mL. Under “E. faecalis M4899, resistance gene vanB”, this substance had an MIC of 256 µg/mL. Under “E. faecalis M4992, resistance gene vanA”, the minimum inhibitory concentration (MIC) amounted to 128 µg/mL. In addition, under “E. faecalis M6383, resistance gene vanA”, the MIC is 128 µg/mL. Under “E. faecalis M6534, resistance gene vanB”, this substance came in with a minimal inhibitory concentration (MIC) of 256 µg/mL. Also, for the setting “E. faecalis M6983, resistance gene vanA”, the minimum inhibitory concentration (MIC) was 128 µg/mL.
